The source of these data is US9481719B2, “Recombinant production of peptides” (BASF SE, priority 2009, dated 2016).

No end group written: not given here.

One assay relates to Escherichia coli. Particulars: compared to the starting fusion; cited from earlier work.
A further assay has as its system Bacillus subtilis. Particulars: compared to the starting fusion; cited from earlier work.
A further assay has as its system E. coli B. Kind of assay: Growth inhibition of E. coli B cultures in LB medium (optical density after 24 h). Format: cell-based. As to the method: Bacterial growth was monitored by measuring the optical density after 24 h. […] For this, said carboxyl groups were activated with 1-ethyl-3-(3-dimethylaminopropyl)carbodiimide hydrochloride and N-hydroxy-sulfosuccinimide, and amidated by subsequent addition of ammonia.

As for “KWKLFKKIPKFLHLAKKF (P18 Peptide) [SEQ ID NO:6, cecropin A-magainin 2 fusion peptide development described by Shin et al. 1999]”, the “antibacterial activity with respect to Escherichia coli” value in the assay on Escherichia coli is given as “not adversely affected”. The “antibacterial activity with respect to Bacillus subtilis” value in the assay with Bacillus subtilis is listed as “not adversely affected”.
In the case of “PGKWKLFKKIPKFLHLAKKFG (P18 Peptide) [antimicrobial peptide released by acidic cleavage from a recombinant repetitive precursor protein]”, in the assay with E. coli B (E. coli B in LB medium, starting optical density 0.1 at 600 nm, shaking at 37° C., 24 h), the “peptide concentration for complete inhibition of growth (optical density at 600 nm after 24 h<0.15)” value is on record as at least 31 ppm.
In the case of “amidated P18 peptide: P18 peptide (SEQ ID NO: 23) whose C-terminal carboxyl group is amidated (PGKWKLFKKIPKFLHLAKKFG-NH2)”, the “antimicrobial activity after amidating the C-terminal carboxyl group, relative to non-amidated P18” value in the assay on E. coli B (C-terminal carboxyl group amidated (EDC / N-hydroxy-sulfosuccinimide, ammonia)) is listed as “improve the antimicrobial activity further”.
